Laboratory results: US11203600B2 (Denali Therapeutics Inc., priority 2017, dated 2021)
pIC50: −log10 of the molar value.

These compounds were tested against GST-hRIPK1 (8-327) (Homo sapiens (Human), UniProt Q13546) (assay: Fluorescent Polarization Binding (FP Binding) assay, RIPK1). Conditions: 10 nM GST-hRIPK1 (8-327), 5 nM fluorescent-labeled ligand, RT, 30 min, mean of at least two independent experiments.
GST-hRIPK1 (8-327), sequence (Q13546 8-327): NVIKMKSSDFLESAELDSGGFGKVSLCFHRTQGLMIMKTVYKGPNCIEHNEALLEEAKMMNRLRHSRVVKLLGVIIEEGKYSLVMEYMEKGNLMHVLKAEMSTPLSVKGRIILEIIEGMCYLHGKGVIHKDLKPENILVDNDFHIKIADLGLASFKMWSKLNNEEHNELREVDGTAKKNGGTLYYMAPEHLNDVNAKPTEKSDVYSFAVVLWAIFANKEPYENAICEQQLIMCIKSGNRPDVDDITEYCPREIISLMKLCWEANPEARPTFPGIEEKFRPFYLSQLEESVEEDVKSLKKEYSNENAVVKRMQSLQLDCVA
Experimental: Fluorescent Polarization Binding (FP Binding) assay (Berger S. B. et al. (2015) Cell Death Discovery, 1: 15009; Maki J. L. et al. (2012) Anal Biochem., 427(2): 164-174) was performed in polystyrene low volume 384-well black plate, at RT in a final volume of 10.1 μl/well using 10 nM of GST-hRIPK1 (8-327) enzyme and 5 nM of fluorescent-labeled ligand (14-(2-{[3-({2-{[4-(cyanomethyl)phenyl]amino]-6-[(5-cyclopropyl-1H-pyrazol-3-yl)amino]-4-pyrimidinyl}amino) propyl}amino}-2-oxoethyl)-16,16,18,18-tetramethyl-6,7,7a,8a,9,10,16,18-octahydrobenzo [2″,3″]indolizino[8″,7″:5′,6′]pyrano [3′,2′:3,4]pyrido[1,2-a]indo1-5-ium-2-sulfonate.
Test compounds were serially diluted in DMSO at 100 fold final concentrations in the assay (1% DMSO final). In each well of a 384-well Plate were dispensed 0.1 μL of compound solution (or DMSO for controls) followed by 5 μL of GST-hRIPK1 (8-327) at twice the final concentrations in assay buffer (50 mM HEPES pH 7.5, 10 mM NaCl, 50 mM MgCl2, 0.02% CHAPS, 0.5 mM DTT and 0.01% Pluronic F127). For negative control the enzyme addition was replaced by assay buffer only.
After addition of 5 μL of fluorescentlabeled ligand at twice the final concentrations in assay buffer, the plate was incubated at RT for […]. At the end, the binding was measured as FP value with the Envision (PerkinElmer) plate reader using filter for an excitation λ=531 nm FP and an emission λ=595 nm FP (S & P-pol). GST-hRIPK1 (8-327) enzyme was produced via Baculovirus expression.
Test compound inhibition was expressed as percent inhibition of internal assay controls. For concentration response curves, normalized data is fit and IC50 determined using XL-fit (IDBS) for Excel. The IC50 values were averaged to determine a mean value, for a minimum of two independent experiments. Results are shown in Table 2 (RIPK1 IC50) values: +++=0.1 nM<IC50<100 nM; ++=100 nM<IC50<1 μM; +=1 μM<IC50).
Compound `CCC1(C(=O)N2CCOc3c(C#N)cncc3C2)CCN(c2ncc(F)cn2)CC1` [Example 98, 4-[4-ethyl-1-(5-fluoropyrimidin-2-yl)piperidine-4-carbonyl]-3,5-dihydro-2H-pyrido[3,4-f][1,4]oxazepine-9-carbonitrile] has a pIC50 of 6.00 to 7.00. With `N#Cc1cncc2c1OCCN(C(=O)C1(F)CCN(c3ncc(C4CC4)cn3)CC1)C2` [Example 100, 4-[1-(5-cyclopropylpyrimidin-2-yl)-4-fluoro-piperidine-4-carbonyl]-3,5-dihydro-2H-pyrido[3,4-f][1,4]oxazepine-9-carbonitrile] the pIC50 was 6.00 to 7.00. In the case of `CC(F)(F)C(C)(C)C(=O)N1CCOc2c(F)cccc2C1` [Example 18, 3,3-difluoro-1-(9-fluoro-3,5-dihydro-2H-1,4-benzoxazepin-4-yl)-2,2-dimethyl-butan-1-one], the pIC50 was 7.00 to 10.00. `N#Cc1ccnc(N2CCC(F)(C(=O)N3CCOc4c(F)cncc4C3)CC2)n1` [Example 160, 2-[4-fluoro-4-(9-fluoro-3,5-dihydro-2H-pyrido[3,4-f][1,4]oxazepine-4-carbonyl)-1-piperidyl]pyrimidine-4-carbonitrile] was tested, and the pIC50 was 6.00 to 7.00. With `CC(C)(C(=O)N1CCOc2cc(C(F)(F)F)ncc2C1)C(F)F` [Example 66, 3,3-difluoro-2,2-dimethyl-1-[8-(trifluoromethyl)-3,5-dihydro-2H-pyrido[3,4-f][1,4]oxazepin-4-yl]propan-1-one] the pIC50 was less than 6.00. With `CC(C)(CC#N)C(=O)N1CCOc2c(C#N)cccc2C1` [Example 25, 4-(3-cyano-2,2-dimethyl-propanoyl)-3,5-dihydro-2H-1,4-benzoxazepine-9-carbonitrile] the pIC50 was 7.00 to 10.00. `Cc1ccnc(N2CCC(F)(C(=O)N3CCOc4c(C#N)cncc4C3)CC2)n1` [Example 162, 4-[4-fluoro-1-(4-methylpyrimidin-2-yl)piperidine-4-carbonyl]-3,5-dihydro-2H-pyrido[3,4-f][1,4]oxazepine-9-carbonitrile] showed a pIC50 of 6.00 to 7.00. `CCC1(C(=O)N2CCOc3c(C#N)cncc3C2)CCC1` [Example 64, 4-(1-ethylcyclobutanecarbonyl)-3,5-dihydro-2H-pyrido[3,4-f][1,4]oxazepine-9-carbonitrile] showed a pIC50 of 6.00 to 7.00. With `CSc1nc(N2CCC(F)(C(=O)N3CCOc4c(C#N)cncc4C3)CC2)ncc1F` [Example 126, 4-[4-fluoro-1-(5-fluoro-4-methylsulfanyl-pyrimidin-2-yl)piperidine-4-carbonyl]-3,5-dihydro-2H-pyrido[3,4-f][1,4]oxazepine-9-carbonitrile] the pIC50 was 7.00 to 10.00. `CC(C)(C(=O)N1CCOc2c(C#N)cncc2C1)C1CC1C(F)F` (stereo not drawn) [Example 82, 4-[2-(-2-(difluoromethyl)cyclopropyl)-2-methyl-propanoyl]-3,5-dihydro-2H-pyrido[3,4-f][1,4]oxazepine-9-carbonitrile] showed a pIC50 of 6.00 to 7.00. `CC(C)(C(=O)N1CCOc2c(F)cccc2C1)C(F)F` [Example 13, 3,3-difluoro-1-(9-fluoro-2,3-dihydrobenzo[f][1,4]oxazepin-4(5H)-yl)-2,2-dimethylpropan-1-one] was tested, and the pIC50 was 7.00 to 10.00. Work on `N#Cc1cncc2c1OCCN(C(=O)C1(F)CCN(c3cnc4ccccc4n3)CC1)C2` [Example 198, 4-(4-fluoro-1-quinoxalin-2-yl-piperidine-4-carbonyl)-3,5-dihydro-2H-pyrido[3,4-f][1,4]oxazepine-9-carbonitrile] yielded a pIC50 of 6.00 to 7.00. Work on `N#Cc1cncc2c1OCCN(C(=O)C1(C(F)F)CCC1)C2` [Example 49, 4-[1-(difluoromethyl)cyclobutanecarbonyl]-3,5-dihydro-2H-pyrido[3,4-f][1,4]oxazepine-9-carbonitrile] yielded a pIC50 of 7.00 to 10.00. Work on `CC(C)(C(=O)N1CCOc2c(C#N)cccc2C1)C(F)F` [Example 23, 4-(3,3-difluoro-2,2-dimethyl-propanoyl)-3,5-dihydro-2H-1,4-benzoxazepine-9-carbonitrile] yielded a pIC50 of 7.00 to 10.00. Work on `CC1CN(C(=O)C(C)(C)C(F)F)Cc2ccccc2O1` (stereo not drawn) [Example 36, 3,3-difluoro-2,2-dimethyl-1-(2-methyl-2,3-dihydrobenzo[f][1,4]oxazepin-4(5H)-yl)propan-1-one] yielded a pIC50 of less than 6.00. With `COC1(C(=O)N2CCOc3c(F)cncc3C2)CCN(c2nccc(OCC(F)F)n2)CC1` [Example 134, [1-[4-(2,2-difluoroethoxy)pyrimidin-2-yl]-4-methoxy-4-piperidyl]-(9-fluoro-3,5-dihydro-2H-pyrido[3,4-f][1,4]oxazepin-4-yl)methanone] the pIC50 was 6.00 to 7.00. `CC(C)(C(=O)N1CCOc2c(C#N)ccc(F)c2C1)C(F)F` [Example 2, 4-(3,3-difluoro-2,2-dimethyl-propanoyl)-6-fluoro-3,5-dihydro-2H-1,4-benzoxazepine-9-carbonitrile] gave a pIC50 of 7.00 to 10.00. Work on `CC(C)(C(=O)N1CCOc2cc(F)ccc2C1)C(F)F` [Example 68, 3,3-difluoro-1-(8-fluoro-3,5-dihydro-2H-1,4-benzoxazepin-4-yl)-2,2-dimethyl-propan-1-one] yielded a pIC50 of 6.00 to 7.00. In the case of `CCC(C)(C)C(=O)N1Cc2cncc(C#N)c2OC[C@H]1C` [Example 75, (3R)-4-(2,2-dimethylbutanoyl)-3-methyl-3,5-dihydro-2H-pyrido[3,4-f][1,4]oxazepine-9-carbonitrile], the pIC50 was 7.00 to 10.00. Compound `CC(C)(C(=O)N1CCOc2c(C#N)cncc2C1)C1CCN(c2ncc(F)cn2)C1` (stereo not drawn) [Example 90, 4-[2-[1-(5-fluoropyrimidin-2-yl)pyrrolidin-3-yl]-2-methyl-propanoyl]-3,5-dihydro-2H-pyrido[3,4-f][1,4]oxazepine-9-carbonitrile] has a pIC50 of 7.00 to 10.00. `N#Cc1cncc2c1OCCN(C(=O)C1(F)CCN(c3nccn4ccnc34)CC1)C2` [Example 106, 4-(4-fluoro-1-imidazo[1,2-a]pyrazin-8-yl-piperidine-4-carbonyl)-3,5-dihydro-2H-pyrido[3,4-f][1,4]oxazepine-9-carbonitrile] was tested, and the pIC50 was 6.00 to 7.00. `CCC(C)(CC#N)C(=O)N1CCOc2c(F)cncc2C1` (stereo not drawn) [Example 73, 3-(9-fluoro-3,5-dihydro-2H-pyrido[3,4-f][1,4]oxazepine-4-carbonyl)-3-methyl-pentanenitrile] gave a pIC50 of 6.00 to 7.00. In the case of `CC(C)(CC#N)C(=O)N1CCOc2c(C#N)cncc2C1` [Example 31, 4-(3-cyano-2,2-dimethyl-propanoyl)-3,5-dihydro-2H-pyrido[3,4-f][1,4]oxazepine-9-carbonitrile], the pIC50 was 6.00 to 7.00.

Same assay, conditions: GST-hRIPK1 (8-327), mean of at least two independent experiments
`N#Cc1cncc2c1OCCN(C(=O)C1CCN(c3ncc(F)cn3)C[C@@H]1F)C2` (stereo partly drawn) [Example 241, 4-[(3,4)-cis-3-fluoro-1-(5-fluoropyrimidin-2-yl)piperidine-4-carbonyl]-3,5-dihydro-2H-pyrido[3,4-f][1,4]oxazepine-9-carbonitrile] showed a pIC50 of 6.00 to 7.00. With `CC(C)(C(=O)N1CCOc2c(C#N)cncc2C1)[C@H]1C[C@H](Cn2ccnn2)C1` [Example 292, trans-4-[2-methyl-2-[3-(triazol-1-ylmethyl)cyclobutyl]propanoyl]-3,5-dihydro-2H-pyrido [3,4-f][1,4]oxazepine-9-carbonitrile] the pIC50 was less than 6.00. For `N#Cc1cncc2c1OCCN(C(=O)C1CCN(c3ncc(F)cn3)CC1F)C2` (single isomer, unassigned) [Example 305, 4-[3-Fluoro-1-(5-fluoropyrimidin-2-yl)piperidine-4-carbonyl]-3,5-dihydro-2H-pyrido[3,4-f][1,4]oxazepine-9-carbonitrile], the pIC50 was 6.00 to 7.00. `COCCOc1nc(N2CCC(C)(C(=O)N3CCOc4c(C#N)cncc4C3)C(F)(F)C2)ncc1F` (stereo not drawn) [Example 217, 4-[3,3-difluoro-1-[5-fluoro-4-(2-methoxyethoxy)pyrimidin-2-yl]-4-methyl-piperidine-4-carbonyl]-3,5-dihydro-2H-pyrido[3,4-f][1,4]oxazepine-9-carbonitrile] showed a pIC50 of 7.00 to 10.00. Work on `N#Cc1cncc2c1OCCN(C(=O)C1(F)CCN(c3ccc4c(n3)CNC4)CC1)C2` [Example 286, 4-[1-(6,7-dihydro-5H-pyrrolo[3,4-b]pyridin-2-yl)-4-fluoro-piperidine-4-carbonyl]-3,5-dihydro-2H-pyrido[3,4-f][1,4]oxazepine-9-carbonitrile] yielded a pIC50 of less than 6.00. Compound `CC(C)(C(=O)N1CCOc2c(C#N)cncc2C1)C1CC(n2cc(F)cn2)C1` (stereo not drawn) [Example 277, 4-[2-[3-(4-fluoropyrazol-1-yl)cyclobutyl]-2-methyl-propanoyl]-3,5-dihydro-2H-pyrido[3,4-f][1,4]oxazepine-9-carbonitrile] has a pIC50 of 6.00 to 7.00. Work on `N#Cc1cncc2c1OCCN(C(=O)C1CCN(c3nc(F)c(F)cc3F)CC1)C2` [Example 288, 4-[1-(3,5,6-trifluoro-2-pyridyl)piperidine-4-carbonyl]-3,5-dihydro-2H-pyrido[3,4-f][1,4]oxazepine-9-carbonitrile] yielded a pIC50 of 7.00 to 10.00.
